Data taken from the supplement of paper PMC10307832.

Legend:
Experiment in all cases: relative viability (nuclei count vs DMSO), 5 days (fraction); higher = more cells survive
MK-8033 + Luminespib = compound: Cn1cc(-c2cnc3ccc4ccc(CS(=O)(=O)NCc5ccccn5)cc4c(=O)c3c2)cn1 [MK-8033] + CCNC(=O)c1noc(-c2cc(C(C)C)c(O)cc2O)c1-c1ccc(CN2CCOCC2)cc1 [Luminespib] (partner 0.01 µM)
Method in brief: (§1)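 For relative viability, nuclei counts in treated wells were divided by those in vehicle wells. Lung cancer cell lines had been pin-tool dosed in 1536-well plates the day after seeding and cultured for 5 days, then fixed and stained in one step (final 0.05% Triton X-100, 1% formaldehyde, 1 ug/ml Hoechst) and imaged at 4×. Doses were one drug alone or a fixed anchor-drug dose plus five library-drug doses (not always all listed) in √10 steps, and values are duplicate-plate medians.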

Irinotecan + Olaparib = compound: CCc1c2c(nc3ccc(OC(=O)N4CCC(N5CCCCC5)CC4)cc13)-c1cc3c(c(=O)n1C2)COC(=O)[C@]3(O)CC [Irinotecan] + O=C(c1cc(Cc2n[nH]c(=O)c3ccccc23)ccc1F)N1CCN(C(=O)C2CC2)CC1 [Olaparib] (partner 8 µM)
Method in brief: as §1

MK-8033 + Dasatinib = compound: Cn1cc(-c2cnc3ccc4ccc(CS(=O)(=O)NCc5ccccn5)cc4c(=O)c3c2)cn1 [MK-8033] + Cc1nc(Nc2ncc(C(=O)Nc3c(C)cccc3Cl)s2)cc(N2CCN(CCO)CC2)n1 [Dasatinib] (partner 0.075 µM)
Method in brief: as §1

RU-SKI 43 + Lapatinib = compound: CC[C@@H](C)CNCC(=O)N1CCC2=C([C@@H]1COC3=CC=CC(=C3)C)C=CS2 [RU-SKI 43] + CS(=O)(=O)CCNCc1ccc(-c2ccc3ncnc(Nc4ccc(OCc5cccc(F)c5)c(Cl)c4)c3c2)o1 [Lapatinib] (partner 2 µM)
Method in brief: as §1

UMC-11
relative viability (MK-8033 + Luminespib; first compound 0.02 µM): 1.03
relative viability (MK-8033 + Luminespib; first compound 0.06325 µM): 0.935
relative viability (MK-8033 + Luminespib; first compound 0.2 µM): 1.03
relative viability (MK-8033 + Luminespib; first compound 2 µM): 0.988
relative viability (Irinotecan + Olaparib; first compound 0.6325 µM): 0.273
relative viability (Irinotecan + Olaparib; first compound 2 µM): 0.206
relative viability (Irinotecan + Olaparib; first compound 6.325 µM): 0.283
relative viability (Irinotecan + Olaparib; first compound 20 µM): 0.226
relative viability (MK-8033 + Dasatinib; first compound 0.02 µM): 0.448
relative viability (MK-8033 + Dasatinib; first compound 0.06325 µM): 0.378
relative viability (MK-8033 + Dasatinib; first compound 0.2 µM): 0.421
relative viability (MK-8033 + Dasatinib; first compound 2 µM): 0.413
relative viability (RU-SKI 43 + Lapatinib; first compound 0.1 µM): 1.05
relative viability (RU-SKI 43 + Lapatinib; first compound 0.3162 µM): 1.01
relative viability (RU-SKI 43 + Lapatinib; first compound 1 µM): 1.48
relative viability (RU-SKI 43 + Lapatinib; first compound 3.162 µM): 0.918
relative viability (RU-SKI 43 + Lapatinib; first compound 10 µM): 0.764
